Test results taken from article PMC4269550, “Lead Optimization of a Pyrazole Sulfonamide Series of Trypanosoma bruceiN-Myristoyltransferase Inhibitors: Identification and Evaluation of CNS Penetrant Compounds as Potential Treatments for Stage 2 Human African Trypanosomiasis” (Journal of Medicinal Chemistry, 2014).
Read-outs that look alike come from different tables or passages of the source.

What was measured:
HsNMT = assay type: biochemical, human; conditions: for IC50: mean of two or more determinations
[1] = test system: MRC5, human lung fibroblast cells; test: in vitro; assay type: cell-based
TbNMT = target: T1, TbNMT (Trypanosoma brucei brucei, UniProt Q388H8); test: NMT enzyme inhibition scintillation proximity assay (TbNMT); assay type: biochemical, T. brucei
T1 sequence (Q388H8 1-446): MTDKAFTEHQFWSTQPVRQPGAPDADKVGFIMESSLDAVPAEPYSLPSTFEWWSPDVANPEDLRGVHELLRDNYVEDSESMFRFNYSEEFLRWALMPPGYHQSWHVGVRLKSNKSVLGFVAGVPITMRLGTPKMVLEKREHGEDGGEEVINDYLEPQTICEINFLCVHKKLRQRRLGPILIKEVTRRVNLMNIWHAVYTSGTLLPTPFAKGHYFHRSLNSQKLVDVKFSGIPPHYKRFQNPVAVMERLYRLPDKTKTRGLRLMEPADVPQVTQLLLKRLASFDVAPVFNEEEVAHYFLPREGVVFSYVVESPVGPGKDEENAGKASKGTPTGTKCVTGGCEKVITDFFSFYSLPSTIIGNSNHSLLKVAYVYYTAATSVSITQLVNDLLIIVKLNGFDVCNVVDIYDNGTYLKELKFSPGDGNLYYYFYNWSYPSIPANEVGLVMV

[2] = test system: T. b. brucei, BSF427, VSG118; test: Cell viability assay, trypanosome; assay type: cell-based
Mouse pharmacokinetics = assay type: in vivo; conditions: words
Experimental: Test compound was dosed as a bolus solution intravenously at 3 mg free base/kg (dose volume, 5 mL/kg; dose vehicle, saline or 5% DMSO; 40% PEG400; 55% saline) to female NMRI mice (n = 3) or dosed orally by gavage as a solution at 10 and/or 50 mg free base/kg (dose volume, 5 mL/kg; dose vehicle, 5% DMSO; 95% distilled water or 5% DMSO; 40% PEG400; 55% distilled water) to female NMRI mice (n = 3/dose level). Female NMRI mice were chosen as these represent the sex and strain used for the stage 1 and stage 2 HAT efficacy models. Blood samples were taken from each mouse at 2 (IV only), 5 (IV only), 15, and 30 min, 1, 2, 4, 6, 8, and 24 (po only) hours postdose and mixed with two volumes of distilled water. After suitable sample preparation, the concentration of test compound in blood was determined by UPLC-MS/MS using a Quattro Premier XE (Waters, USA). Pharmacokinetic parameters were derived from the mean blood concentration time curve using PKsolutions software v 2.0 (Summit Research Services, USA).

[3] = Intrinsic clearance (Cli), mouse liver microsomes; assay type: in vitro ADME; conditions: for Cli (mouse): mouse liver microsomes; for Cli: mouse microsomes
in vitro = assay type: cell-based, human; conditions: human; read-out: MRC-5 EC50
[4] = In vitro metabolite identification with mouse microsomes; assay type: in vitro ADME; conditions: for % Parent remaining (t = 15 min): 5µM, 15 min at 37°C, mouse liver microsomes; for sulfonamide N-dealkylation on incubation with mouse microsomes: words
[5] = mean of two or more determinations, read-out: TbNMT IC50

Compound | IC50 (HsNMT) | S = IC50 HsNMT/EC50 T. brucei (HsNMT; selectivity) | EC50 [1] | EC50 [2] | EC50 (in vitro) | EC50 ([2]; Trypanosoma brucei) | also measured
Cc1nn(C)c(C)c1N(C(F)F)S(=O)(=O)c1c(Cl)cc(CCCOC2CC3CCC(C2)N3C)cc1Cl (stereo not drawn) [compound 71] | 62 nM | 6 | 1500 nM | 10 nM | – | – | IC50 (TbNMT; [5]): 2 nM
Cc1nn(C)c(C)c1N(C(F)F)S(=O)(=O)c1c(Cl)cc(CCCN2CCN3CCC[C@@H]3C2)cc1Cl [compound 53] | – | – | – | – | – | – | oral exposure in mouse (Mouse pharmacokinetics): no improvement to oral exposure; Cli (mouse) [3]: 15 mL min^–1 g^–1; Cli [3]: 15 mL/min/g
CCc1nccn1CCCCCCc1cc(Cl)c([S+](=O)([O-])N(c2c(C)nn(C)c2C)C(F)F)c(Cl)c1 [compound 69] | – | – | – | – | 7700 nM | 150 nM | –
CCN(c1c(C)nn(C)c1C)[S+](=O)([O-])c1c(Cl)cc(CCCC2CCN(C)CC2)cc1Cl [compound 39] | – | – | – | – | 2200 nM | – | % Parent remaining (t = 15 min) [4]: 52%; sulfonamide N-dealkylation on incubation with mouse microsomes [4]: N-dealkylated sulfonamide as the predominant metabolite; Cli (mouse) [3]: 12 mL min^–1 g^–1
Cc1nn(C)c(C)c1NS(=O)(=O)c1ccc(-c2ccnc(N3CC(C)NC(C)C3)c2)cc1 (stereo not drawn) [compound 62] | – | – | – | – | 2690 nM | 30 nM | –
Cc1nn(C)c(C)c1N(C(F)F)S(=O)(=O)c1c(Cl)cc(CCCCCCN(C)C(C)C)cc1Cl [compound 84] | 180 nM | 5 | 5100 nM | 38 nM | – | – | IC50 (TbNMT; [5]): 3 nM
Cc1nn(C)c(C)c1N(C(F)F)S(=O)(=O)c1c(Cl)cc(-c2ccnc(N3CCNCC3)c2)cc1Cl [compound 74] | – | – | 140 nM | 3 nM | – | – | –
Cc1nn(C)c(C)c1N(C(F)F)S(=O)(=O)c1c(Cl)cc(CCCCCCn2ccnc2C(C)C)cc1Cl [compound 70] | 500 nM | – | – | – | 3600 nM | 270 nM | S = IC50 HsNMT/EC50 T. brucei (HsNMT): 2; IC50 (TbNMT): 25 nM
CCN(c1c(C)nn(C)c1C)S(=O)(=O)c1c(Cl)cc(CCCN2CCN(C)CC2)cc1Cl [compound 34] | – | – | – | – | – | – | % Parent remaining (t = 15 min) [4]: 37%; sulfonamide N-dealkylation on incubation with mouse microsomes [4]: N-dealkylated sulfonamide as the predominant metabolite; oral exposure in mouse (Mouse pharmacokinetics): poor oral exposure; Cli (mouse) [3]: 3.1 mL min^–1 g^–1; Cli [3]: 3.1 mL/min/g
Cc1nn(C)c(C)c1NS(=O)(=O)c1ccc(-c2ccnc(N3CCNC(C(C)C)C3)c2)cc1 (stereo not drawn) [compound 63] | – | – | – | – | 8160 nM | 140 nM | –
Cc1nn(C)c(C)c1N(C(F)F)S(=O)(=O)c1c(Cl)cc(CCCOC2CC(C)(C)N(C)C(C)(C)C2)cc1Cl [compound 75] | 1700 nM | 27 | 5300 nM | 64 nM | – | – | IC50 (TbNMT; [5]): 10 nM
Cc1nn(C)c(C)c1NS(=O)(=O)c1ccc(-c2ccnc(N3CCNC(C)C3)c2)cc1 (stereo not drawn) [compound 60] | – | – | – | – | 790 nM | 4 nM | –
CCN(CC)CCCCCCc1cc(Cl)c(S(=O)(=O)N(c2c(C)nn(C)c2C)C(F)F)c(Cl)c1 [compound 81] | 42 nM | 3 | 2900 nM | 14 nM | – | – | IC50 (TbNMT; [5]): 3 nM
Cc1nn(C)c(C)c1NS(=O)(=O)c1ccc(-c2ccnc(N3CCNC(c4ccccc4)C3)c2)cc1 (stereo not drawn) [compound 61] | 2460 nM | < 1 | – | – | > 50000 nM | > 10000 nM | IC50 (TbNMT): 800 nM
Cc1nn(C)c(C)c1N(C(F)F)S(=O)(=O)c1c(Cl)cc(CCCCCCn2ccnc2)cc1Cl [compound 67] | 140 nM | – | – | – | 7200 nM | 35 nM | S = IC50 HsNMT/EC50 T. brucei (HsNMT): 4; IC50 (TbNMT): 5 nM
